In one assay the target is T1, recombinant human MetAP2 (Homo sapiens, UniProt P50579).
T1 construct: Flag; made in house
The experiment in a line: Recombinant human MetAP2 enzyme inhibition assay (MAS peptide / amino acid oxidase / Amplex Ultrared readout). It is filed as biochemical. The conditions noted are these: Flag tagged human recombinant MetAP2, 25 minutes at 25° C.

In assay [1] the test system is Diet Induced Obese (DIO) C57BL/6 mice. Put plainly: 10 day DIO mouse model, weight loss vs. vehicle. It is filed as in vivo. To be noted: 240 h; for inhibition in vivo at 0.3 mg/kg: 0.3 mpk sc once a day for 10 days; for inhibition in vivo at 1 mg/kg: 1.0 mpk sc once a day for 10 days. The method in brief:
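Male DIO C57BL/6 mice on 60% fat diet, vehicle-acclimated 3 days, then given compound at 0.3 or 1.0 mg/kg SC (10% DMSO in water) once daily for 10 days. Body weight and food intake recorded daily; weight loss versus vehicle, with hematology and blood chemistry on Day 11.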

The test system of assay [2] is rat DIO model (Sprague Dawley rats on 45% High Fat diet). The experiment in a line: 11 day rat DIO model, weight loss vs. vehicle. The class given is in vivo. The conditions noted are these: for Rat @ 0.3 mpk sc (%) weight loss vs. vehicle: 0.3 mpk sc once a day for 11 days; for Rat @ 1.0 mpk sc (%) weight loss vs. vehicle: 1.0 mpk sc once a day for 11 days. The source says: The objective of this study design is to investigate the efficacy of disclosed compounds in an 11 day rat DIO model used to screen compounds for pharmacologic efficacy on endpoints related to obesity and metabolism. Effects on body weight, food intake, hematology and blood chemistries were the primary readouts of this study design. Male Sprague Dawley rats, approximately 8 weeks of age, were ordered from a certified vendor and housed on irradiated corncob bedding in micro-isolator cages, on a 12-hour light-dark cycle (0700-1900) at 68-74° F. and 30-70% humidity. Rats were fed Research Diets D12451 (45% High Fat) and provided water ad libitum. Rats were received and housed in the facility for at least two or three weeks prior to start of test article administration. On Day −4 or −3, rats were randomized into study groups based on body weight and body weights were continued to be recorded daily for the duration of the study. Daily food intake was assessed starting on Study Day −2 by weighing the hopper including the food to avoid loss of food in transfer.
Compounds were formulated into a 100% DMSO stock (at 9 mg/mL) prior to the start, and further diluted into the target working concentration using the vehicle of 10% DMSO in water. Prior to test article administration, starting on Day −3 a dosing acclimation occurred with all animals receiving a subcutaneous injection of vehicle (10% DMSO) only for 3 days. Starting on Day 1, test compounds or vehicle were administered based on individual body weight, subcutaneously, once a day for 11 days. All animals were sacrificed on Day 11, approximately 2 hours following the final dosing on Day 11. After sacrifice, whole blood was collected and analyzed for hematology and blood chemistry parameters.
Compounds were tested for weight loss vs. vehicle at 0.3 and 1.0 mpk sc (mg per kg animal weight delivered subcutaneously), and the results are shown in Table 2 below.

T1 sequence (P50579 whole entry): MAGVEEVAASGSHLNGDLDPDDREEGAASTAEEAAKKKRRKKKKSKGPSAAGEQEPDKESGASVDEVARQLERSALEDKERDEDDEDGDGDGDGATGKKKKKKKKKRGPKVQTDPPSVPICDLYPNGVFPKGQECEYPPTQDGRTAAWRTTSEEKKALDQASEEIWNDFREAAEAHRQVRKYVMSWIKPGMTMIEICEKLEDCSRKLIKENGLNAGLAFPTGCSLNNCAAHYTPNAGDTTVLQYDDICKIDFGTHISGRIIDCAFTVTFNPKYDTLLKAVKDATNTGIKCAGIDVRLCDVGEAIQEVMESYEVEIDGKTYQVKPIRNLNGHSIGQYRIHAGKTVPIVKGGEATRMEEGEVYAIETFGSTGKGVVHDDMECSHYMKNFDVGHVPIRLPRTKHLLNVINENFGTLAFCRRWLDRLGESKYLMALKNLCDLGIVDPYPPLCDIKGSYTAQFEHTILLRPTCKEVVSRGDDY

As for `CO[C@@H]1[C@H](OC(=O)N[C@H](c2cn(C[C@H]3CCCN3C)cn2)C(C)C)CC[C@]2(CO2)[C@H]1[C@@]1(C)O[C@@H]1CC=C(C)C` [Example 16, (3R,4S,5S,6R)-5-methoxy-4-((2R,3R)-2-methyl-3-(3-methylbut-2-enyl)oxiran-2-yl)-1-oxaspiro[2.5]octan-6-yl (S)-2-methyl-1-(1-(((R)-1-methylpyrrolidin-2-yl)methyl)-1H-imidazol-4-yl)propylcarbamate], the half-maximal inhibitory concentration (IC50) on recombinant human MetAP2 lay within 50 to 500 nM. Also, the inhibition in vivo at 0.3 mg/kg in assay [1] stood at 6.6%. Besides, the “Rat @ 0.3 mpk sc (%) weight loss vs. vehicle” value in assay [2] is recorded as 2.8%.
In the case of `CO[C@@H]1[C@H](OC(=O)N[C@@H](Cc2noc(=O)[nH]2)C(C)C)CC[C@]2(CO2)[C@H]1[C@@]1(C)O[C@@H]1CC=C(C)C` [Example 27, (3R,4S,5S,6R)-5-methoxy-4-((2R,3R)-2-methyl-3-(3-methylbut-2-enyl)oxiran-2-yl)-1-oxaspiro[2.5]octan-6-yl (S)-3-methyl-1-(5-oxo-4,5-dihydro-1,2,4-oxadiazol-3-yl)butan-2-ylcarbamate], the IC50 on recombinant human MetAP2 is 50 to 500 nM. Moreover, in assay [1], the inhibition in vivo at 1 mg/kg amounted to 5.4%. In assay [2], the “Rat @ 0.3 mpk sc (%) weight loss vs. vehicle” value is given as −0.8% and the “Rat @ 1.0 mpk sc (%) weight loss vs. vehicle” value was determined as 1.9%.
In the case of `CO[C@@H]1[C@H](OC(=O)N[C@@H](C)Cc2noc(=O)[nH]2)CC[C@]2(CO2)[C@H]1[C@@]1(C)O[C@@H]1CC=C(C)C` [Example 28, (3R,4S,5S,6R)-5-methoxy-4-((2R,3R)-2-methyl-3-(3-methylbut-2-en-1-yl)oxiran-2-yl)-1-oxaspiro[2.5]octan-6-yl ((S)-1-(5-oxo-4,5-dihydro-1,2,4-oxadiazol-3-yl)propan-2-yl)carbamate], the IC50 at recombinant human MetAP2 is less than 50 nM. In addition, in assay [1], the inhibition in vivo at 0.3 mg/kg was -2.3% and the inhibition in vivo at 1 mg/kg was 4.2%. The “Rat @ 0.3 mpk sc (%) weight loss vs. vehicle” value in assay [2] is listed as −1.4%.
For the molecule `CO[C@@H]1[C@H](OC(=O)N[C@H](Cc2nc(=O)o[nH]2)C(C)C)CC[C@]2(CO2)[C@H]1[C@@]1(C)O[C@@H]1CC=C(C)C` [Example 30, (3R,4S,5S,6R)-5-methoxy-4-((2R,3R)-2-methyl-3-(3-methylbut-2-enyl)oxiran-2-yl)-1-oxaspiro[2.5]octan-6-yl (R)-3-methyl-1-(5-oxo-4,5-dihydro-1,2,4-oxadiazol-3-yl)butan-2-ylcarbamate], the 50% inhibitory concentration (IC50) on recombinant human MetAP2 was 50 to 500 nM. Further, in assay [1], the inhibition in vivo at 0.3 mg/kg worked out at 1.4% and the inhibition in vivo at 1 mg/kg came out at 14.1%. Moreover, in assay [2], the “Rat @ 0.3 mpk sc (%) weight loss vs. vehicle” value is reported as 0.7% and the “Rat @ 1.0 mpk sc (%) weight loss vs. vehicle” value is −0.4%.
On to `CO[C@@H]1[C@H](OC(=O)NCC(C)(C)c2cn(C[C@H]3CCCN3C)cn2)CC[C@]2(CO2)[C@H]1[C@@]1(C)O[C@@H]1CC=C(C)C` [Example 38, (3R,4S,5S,6R)-5-methoxy-4-((2R,3R)-2-methyl-3-(3-methylbut-2-en-1-yl)oxiran-2-yl)-1-oxaspiro[2.5]octan-6-yl (2-methyl-2-(1-(((R)-1-methylpyrrolidin-2-yl)methyl)-1H-imidazol-4-yl)propyl)carbamate], for which the 50% inhibitory concentration (IC50) at recombinant human MetAP2 fell in the range of 50 to 500 nM. In assay [1], the inhibition in vivo at 0.3 mg/kg amounted to 5% and the inhibition in vivo at 1 mg/kg amounted to 5.5%. The “Rat @ 0.3 mpk sc (%) weight loss vs. vehicle” value in assay [2] is recorded as −1.7%.

The values above are taken from US20190169181A1, “FUMAGILLOL COMPOUNDS AND METHODS OF MAKING AND USING SAME” (Zafgen, Inc., priority 2016, published 2019).
